Consider 11 compounds from patent publication US20240041842A1, “PHARMACEUTICAL COMPOSITION FOR INHIBITING CANCER METASTASIS” (INDUSTRY-ACADEMIC COOPERATION FOUNDATION, YONSEI UNIVERSITY, priority 2021, published 2024).

Test [1] relates to Snail. Description: Western blot of Snail protein. Format: cell-based, human. The following applies: for Snail expression levels: BAPTA or calmidazolium for 1 hour; for Snail: BMS303141 24 hours, NDI-091143 24 hours, SB-204990 2 hours; for Snail expression: H2O2 or NAC for 6 hours. How it is done: (§1) Cells were harvested, washed with PBS, and lysed on ice with RIPA buffer containing protease and phophatase inhibitor cocktail (GenDEPOT). After 15 minutes of incubation, the cell lysates were centrifuged at 15,000 rpm at 4° C. for 10 minutes. Protein concentration was measured by Bradford assay (Bio-rad, 500-0006). Equal amounts of total protein were placed on an SDS gel electrophoresis and transferred to a PVDF membrane (Bio-rad). The membrane was blocked with 5% skim milk for 1 hour at room temperature and incubated overnight at 4° C. with primary antibody in a buffer containing 0.1% Tween-20. Subsequently, the membrane was washed three times with Tween-PBS buffer and incubated for 1 hour at room temperature using a secondary antibody diluted in blocking buffer containing 0.1% Tween-20. Subsequently, the membrane was washed three times for 10 minutes each using Tween-TBS. Densitometry of Western blots was measured using ImageJ software.
[…] For autophagy activation, cells were'treated with 2 μM rapamycin (Selleckchem, S1039) for 5 hours. Modulation of intracellular ROS was performed with N-acetyl-cysteine (10 mM) (Sigma, A7250), hydrogen peroxide solution (100 μM to 200 μM) (Sigma, 216763), or CDDO-ME NRF2 activator (50 nM, 100 nM) (Sellckchem, S8078) for 4 to 24 hours. Intercellular calcium signal control was performed for 1 hour using BAPTA-AM (20 μM) (Sigma, A1076) or Calmidazolium Chloride (2.5 μM) (Sigma, C3930). […] For TFEB protein phosphorylation, tacrolimus (1 μM) (Selleckchem, S5003) was treated for 1 hour. […] During siRNA treatment, each siRNA was treated to a concentration of 40 to 50 nM and treated together with Lipofectamine RNAiMax (Thermo Fisher Scientific, 13778150) for transformation, and were used for experiments 48 to 72 hours later. For cDNA treatment, each cDNA was treated to a concentration of 1 to 2 μg in a 6-well plate and treated with Lipofectamine 2000 (Thermo Fisher Scientific, 11668019) for transformation, and were used for experiments 24 hours later.
On the technique in general: A western blot detects proteins with antibodies after separation by electrophoresis.

Test [2] has as its system phospho-AMPK T172. Description: Western blot of phospho-AMPK T172. The following applies: HBEC-KL cell line; for AMPK phosphorylation: BAPTA or calmidazolium for 1 hour; for AMPK phosphorylation at T172: H2O2 or NAC for 6 hours. Type of test: cell-based, human. How it is done: as §1
For inhibition of autophagy, cells were treated with 50 μM chloroquine (Sigma, C6628) for 12 to 24 hours. For autophagy activation, cells were'treated with 2 μM rapamycin (Selleckchem, S1039) for 5 hours. Modulation of intracellular ROS was performed with N-acetyl-cysteine (10 mM) (Sigma, A7250), hydrogen peroxide solution (100 μM to 200 μM) (Sigma, 216763), or CDDO-ME NRF2 activator (50 nM, 100 nM) (Sellckchem, S8078) for 4 to 24 hours. Intercellular calcium signal control was performed for 1 hour using BAPTA-AM (20 μM) (Sigma, A1076) or Calmidazolium Chloride (2.5 μM) (Sigma, C3930). C646 (25 μM) (Sigma, SML0002), curcumin (10 μM) (Selleckchem, S1848) CBP/p300 inhibitor or vorinostat ([…]) (Selleckchem, S1047) HDAC inhibitor was treated for 24 hours to modulate snail protein acetylation. and CHIR99021 GSK3b inhibitor (3 μM) (Sigma, SML1046) was treated for 24 hours to control Snail protein phosphorylation. For TFEB protein phosphorylation, tacrolimus (1 μM) (Selleckchem, S5003) was treated for 1 hour. […] During siRNA treatment, each siRNA was treated to a concentration of 40 to 50 nM and treated together with Lipofectamine RNAiMax (Thermo Fisher Scientific, 13778150) for transformation, and were used for experiments 48 to 72 hours later. For cDNA treatment, each cDNA was treated to a concentration of 1 to 2 μg in a 6-well plate and treated with Lipofectamine 2000 (Thermo Fisher Scientific, 11668019) for transformation, and were used for experiments 24 hours later.

Test [3] concerns A549-luc cells. In words: A549-luc tail vein injection metastasis model. Format: in vivo. The following applies: nude mice; 100 mg/kg, qd p.o 20 consecutive days. The method, then: FIG. 13E illustrates role of STO-609 on cancer metastasis in an A549-luc tail vein injection model. After intravenous injection of A549-luc cells into nude mice, vehicle or STO-609 (25 mg/kg and 100 mg/kg qd) was injected for 28 days starting one day after the injection. A picture taken of a bioluminescent image when 4 weeks have elapsed after injection is shown (above). Analysis results of the total metastasis burden by photonic flux are shown (below). FIG. 13H illustrates the role of BMS303141 on cancer metastasis in an A549-luc tail vein injection model. A549-luc cells were intravenously injected into nude mice, and then vehicle or BMS303141 (100 mg/kg q.d.) was injected for 20 days starting one day after the injection. A bioluminescence image when 3 weeks have elapsed after injection is shown. 7- to 9-week-old BALB/c-nu Sic mice were obtained from SLC, Inc. (Shizuoka, Japan) and used, A549-luc cells (#JCRB1414) or SNAI1 shRNA-mediated knockdown A549-luc cells were injected at 3-4.5×10^6 cells through the tail vein of mice. After 3 to 4 weeks, metastasis was monitored by bioluminescence imaging analysis. More specifically, after injecting D-luciferin (75 mg/kg) (PerkinElmer, 122799) into the abdominal cavity of the mouse, images were obtained using an IVIS imaging system (IVIS 200, PerkinElmer, Waltham, MA, USA) in the supine position. Lung tissue was obtained for histopathological analysis. Images were analyzed using commercially available software (ImageScope; Aperio Technologies). In the STO-609 efficacy test, STO-609 (25 mg, 100 mg/kg/day) was orally administered to mice on the day of injection. In the BMS303141 efficacy test, BMS303141 (100 mg/kg/day) was orally administered to mice on the day of injection.

Test [4] concerns HBEC-KL cell line. In words: Matrigel invasion assay, HBEC-KL cell line. The following applies: HBEC-KL; 50 uM BMS303141 24 hours, 1 um NDI-091143 24 hours, 20 uM SB-204990 2 hours. Format: cell-based, human. The method, then: For the 2D invasion assay, the inserts were pre-coated with 300 μg/ml Matrigel (Coming, 354234). After staining with […] dye (Bio-Rad, 1450013), 1×10^5 live cells per 8-um-pore cell-culture insert (Costar. 3422) were seeded in 0.5% ACL medium. 10% ACL medium was added to the outside of the insert. In the case of lung cancer and pancreatic cancer cell lines, after inoculation in 1% RPMI medium, 20% RPMI medium was added to the outside of the insert. Plates were incubated for 24 hours at 37° C. After incubation, the insert was fixed with 3.7% PFA, washed, stained with 0.4% crystal violet, and the upper membrane was washed and dried.

In test [5] the test system is Snail. Description: Immunoprecipitation-immunoblot of phosphorylated/acetylated or K48 polyubiquitinated Snail in A549 cells. As to conditions: 25 uM C646 or 3 uM SAHA. Format: cell-based, human. How it is done: FIG. 9K illustrates the immunoprecipitation-immunoblot result of phosphorylated/acetylated or K48 polyubiquitinated Snail assay after transfection of wild-type Snail (pFLAG-Snail WT) or acetylation-defective Snail mutant (pFLAG-SnailK146R) into A549 cells and/or treatment with 25 uM C646.
FIG. 9L illustrates the immunoprecipitation-immunoblot results of the polyubiquitinated Snail assay after transfection of HA-ubiquitin and wild-type Snail (pFLAG-Snail WT) or acetylation-defective Snail mutant (pFLAG-SnailK146R) into A549 cells and/or treatment with 25 uM C646 for 2 hours (left) and/or treatment of 3 uM SAHA for 5 hours (right).
(§2) For immunoprecipitation, equal amounts of lysate and Co-IP buffer (40 mM HEPES, pH 7.4, 120 mM NaCl, 2 mM EDTA, 0.3% CHAPS (Sigma, 10810118001), 10 mM pyrophosphate (Sigma, 221368), 10 mM glycerophosphate (Sigma, G9422), 50 mM NaF, phosphatase and protease inhibitor mixture) were mixed. Cell lysates (1 μg protein) were incubated overnight at 4° C. on anti-FLAG® M2 Affinity Gel (Sigma, A2220) or anti-acetyl-lysine antibody coated agarose (ImmuneChem Pharmaceuticals, ICP0388). The immunoprecipitate was then washed three times in IP buffer, and the immunoprecipitated complex was dissolved and separated by boiling in IP buffer for 5 minutes.

Test [6] concerns TFEB. Description: Western blot / immunoprecipitation-immunoblot of TFEB (acetylated, phosphorylated, total). Type of test: cell-based, human. As to conditions: HBEC-KL; 1 uM FK506, 1 hour. The method, then:
FIG. 11J illustrates a diagram of immunoblot results of the […] a control (left), and the immunoprecipitation-immunoblot result of TFEB acetylated HBEC-KL cells under the same conditions (right) is also shown,
as §1, §2

Test [7] concerns TFEB (CLEAR network). Description: CLEAR motif-driven luciferase reporter assay. Format: cell-based, human. The following applies: HBEC-KL; 1 uM FK506, 1 hour. How it is done:
To compare the TFEB reporter activity with other cell lines (HBEC30KT, HBEC-K, and HBEC-KL), the pGL4.70 5× CLEAR Rluc and pSt4.14 Fluc vectors were transiently co-transfected and normalized luciferase activity was measured in Dual-Measured by Luciferase® Reporter Assay System (Promega, E1910),
For orientation: Reporter assays use an easily measured gene product as a stand-in for the process of interest.

The test system of test [8] is LC3. In words: Autophagic flux (LC3 Western blot, mRFP-GFP-LC3 lysosomal delivery assay). As to conditions: HBEC-KL cell line; NAC or 50 uM STO-609, 24 hours. Format: cell-based, human. How it is done: as §1, with “Representative GFP-LC3, RFP-LC3 and overlapping images are shown. In addition, red puncta (mRFP+/GFP−) and yellow puncta (mRFP+/GFP+) per cell were quantified and graphed (n=15 cells/treatment). Cells” for “Cells”

Where [9] appears, read: HBEC-KL cell line, 20 nM bortezomib.

For the compound `O=C(O)CN(CC(=O)O)c1ccccc1OCCOc1ccccc1N(CC(=O)O)CC(=O)O` [BAPTA], the Snail expression levels result in test [1] (HBEC-KL cell line) is recorded as “reduced”. Also, in test [2], the AMPK phosphorylation result is “reduced”.
With `COc1ccc(-c2ccccc2)cc1NS(=O)(=O)c1cc(Cl)cc(Cl)c1O` [BMS303141], the “total degree of metastasis” value in test [3] is “reduced”. In addition, in test [1] (HBEC-KL), the Snail result is “reduced”. Further, in test [4], the Matrigel invasion entry is reported as “reduced”.
As to `CC1=NN(c2ccc(C(=O)O)cc2)C(=O)/C1=C\c1ccc(-c2cc(C)c(C)cc2[N+](=O)[O-])o1` [C646], in test [5] (pFLAG-Snail WT), the “K48 polyubiquitination of wild-type Snail” value is reported as “increased” and the “phosphorylation of wild-type Snail” value was “increased”. In addition, the “phosphorylation and acetylation of K146R Snail” value in test [5] (pFLAG-SnailK146R) is recorded as “did not affect”.
Regarding `COC(=O)[C@]12CCC(C)(C)C[C@H]1[C@H]1C(=O)C=C3[C@@]4(C)C=C(C#N)C(=O)C(C)(C)[C@@H]4CC[C@@]3(C)[C@]1(C)CC2` [CDDO-ME], the “level of phospho-AMPK T172” value in test [2] (CDDO-ME for 24 hours) is “reduced”.
Take `C=CC[C@@H]1/C=C(\C)C[C@H](C)C[C@H](OC)[C@H]2O[C@@](O)(C(=O)C(=O)N3CCCC[C@H]3C(=O)O[C@H](/C(C)=C/[C@@H]3CC[C@@H](O)[C@H](OC)C3)[C@H](C)[C@@H](O)CC1=O)[C@H](C)C[C@@H]2OC` [FK506, tacrolimus]: in test [6], the phospho-TFEB entry is reported as “increasing”. For the same compound, the CLEAR activity entry in test [7] is “decreased”.
`OO` [H2O2, hydrogen peroxide]: in test [1] (HBEC-KL cell line), the Snail expression result is reported as “increased”. In test [2], the “AMPK phosphorylation at T172” value is “increased”.
Regarding `CC(=O)N[C@@H](CS)C(=O)O` [NAC, N-acetyl-cysteine], in test [8], the autophagic flux result is “decreased”. In test [1] (HBEC-KL cell line), the Snail expression result was “decreased”. In addition, the “AMPK phosphorylation at T172” value in test [2] is on record as “decreased”.
Regarding `COC(=O)c1cc(Cl)c(O)c(S(=O)(=O)Nc2cc(-c3ccccc3)c(F)cc2F)c1` [NDI-091143], the Snail result in test [1] (HBEC-KL) was “reduced”. Further, the Matrigel invasion result in test [4] was “reduced”.
Take `O=C(O)C[C@@]1(O)C[C@@H](CCCCCCc2ccc(Cl)cc2Cl)OC1=O` [SB-204990]: the Snail entry in test [1] (HBEC-KL) was “reduced”. The Matrigel invasion result in test [4] was “reduced”.
For the compound `CC(C)C[C@H](NC(=O)[C@H](Cc1ccccc1)NC(=O)c1cnccn1)B(O)O` [bortezomib], in test [1] (setting [9]), the “reduction of Snail by STO-609, with bortezomib also treated” value is reported as “restored” and the “reduction of Snail by chloroquine (CQ), with bortezomib also treated” value is given as “restored”. In addition, the “Snail reduction caused by the ACLY inhibitor, with Bortezomib” value in test [1] (HBEC-KL, 20 nM bortezomib for 3 hours) is on record as “restored”.
With `Clc1ccc(C(c2ccc(Cl)cc2)n2cc[n+](CC(OCc3ccc(Cl)cc3Cl)c3ccc(Cl)cc3Cl)c2)cc1` (stereo not shown) [calmidazolium], the Snail expression levels result in test [1] (HBEC-KL cell line) is “reduced”. In test [2], the AMPK phosphorylation entry is given as “reduced”.
